Among the test systems are SR leukemia; HCT-116 colon; OVCAR-4 ovarian; NCI/ADR-RES ovarian; MOLT-4 leukemia; MDA-MB-435; PC-3 prostate; MCF7 breast; RPMI-8226 leukemia; MDA-MB-231 breast.
Holding throughout (experiment): NCI-60 cell line screen, 48 h

Molecules are shown by their SMILES.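 Test compounds were applied to cells in 96-well plates for 48 hours at 5 doses. GI50: concentration for 50% inhibition of growth. Definition used: TGI = concentration required for complete inhibition of growth.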

On to `O=c1[nH]c(-c2ccc(C(F)(F)F)cc2)nc2c1CSCC2`, for which the GI50 in the assay with SR leukemia is more than 100 µM; with HCT-116 colon, more than 63.7 µM; with OVCAR-4 ovarian it was 20.1 µM; in the assay on NCI/ADR-RES ovarian, 35.8 µM; with MOLT-4 leukemia it was more than 100 µM; with MDA-MB-435, more than 100 µM. Moreover, the GI50 with PC-3 prostate is more than 77.3 µM; in the assay on MCF7 breast, more than 100 µM; in the assay on RPMI-8226 leukemia, more than 100 µM; in the assay on MDA-MB-231 breast it was 40.4 µM. Also, the TGI in the assay with SR leukemia, with HCT-116 colon, in the assay on OVCAR-4 ovarian, in the assay on NCI/ADR-RES ovarian, in the assay with MOLT-4 leukemia and in the assay with MDA-MB-435 was more than 100 µM in each case. For the same molecule, the TGI in the assay on PC-3 prostate, in the assay on MCF7 breast, with RPMI-8226 leukemia and in the assay on MDA-MB-231 breast was more than 100 µM throughout.

Take `O=C(/C=C/c1ccco1)Nc1ncc(Cc2ccc(F)cc2)s1`: the GI50 is 0.0356 µM in the assay on SR leukemia; 0.0408 µM in the assay with HCT-116 colon; 1.22 µM with OVCAR-4 ovarian; 0.0445 µM in the assay on NCI/ADR-RES ovarian; 0.0825 µM with MOLT-4 leukemia; 0.0219 µM with MDA-MB-435. In addition, the GI50 was 0.0571 µM in the assay on PC-3 prostate, 0.0612 µM in the assay with MCF7 breast, 0.0721 µM with RPMI-8226 leukemia and 0.199 µM with MDA-MB-231 breast. Also, the TGI in the assay on SR leukemia was more than 68 µM; in the assay on HCT-116 colon, more than 100 µM; with OVCAR-4 ovarian, more than 100 µM; in the assay on NCI/ADR-RES ovarian, 4.02 µM; in the assay on MOLT-4 leukemia, more than 100 µM; in the assay with MDA-MB-435, 0.0558 µM. For the same molecule, the TGI with PC-3 prostate is more than 100 µM; with MCF7 breast it was more than 100 µM; with RPMI-8226 leukemia, more than 100 µM; in the assay on MDA-MB-231 breast it was more than 45.4 µM.

As for `C[C@H]1[C@@H](OCC(CO[C@H]2O[C@@H]3O[C@@]4(C)CC[C@H]5[C@H](C)CC[C@@H]([C@H]2C)[C@@]35OO4)=NOCC(=O)O)OC2O[C@@]3(C)CC[C@H]4[C@H](C)CC[C@@H]1[C@@]24OO3` (some centres not stated), the GI50 with SR leukemia was less than 0.01 µM; in the assay with HCT-116 colon it was less than 0.01 µM; in the assay with OVCAR-4 ovarian it was 0.0565 µM; in the assay on NCI/ADR-RES ovarian it was 0.525 µM; in the assay with MOLT-4 leukemia, less than 0.01 µM; in the assay on MDA-MB-435 it was 0.02 µM. The GI50 with PC-3 prostate was less than 0.01 µM; with MCF7 breast it was 0.212 µM; with RPMI-8226 leukemia, less than 0.01 µM; in the assay with MDA-MB-231 breast it was 0.12 µM. Also, the TGI with SR leukemia is 11.8 µM; in the assay on HCT-116 colon, 13.7 µM; in the assay with OVCAR-4 ovarian it was 18.2 µM; in the assay on NCI/ADR-RES ovarian it was 16.4 µM; in the assay on MOLT-4 leukemia, 8.61 µM; with MDA-MB-435 it was 5.25 µM. Further, the TGI came to 13.5 µM with PC-3 prostate, 17.6 µM in the assay on MCF7 breast and 2.41 µM in the assay on MDA-MB-231 breast.

For `COc1ccccc1-n1c(SCc2cc(OC)c(OC)c(OC)c2)nc2ccc(Cl)cc2c1=O`, the GI50 was 0.538 µM in the assay on SR leukemia; 2.53 µM in the assay on HCT-116 colon; 7.35 µM with OVCAR-4 ovarian; 2.25 µM in the assay with NCI/ADR-RES ovarian; 3.05 µM in the assay with MOLT-4 leukemia; 0.366 µM in the assay on MDA-MB-435. Also, the GI50 with PC-3 prostate was 2.65 µM; in the assay on MCF7 breast, 0.915 µM; in the assay with RPMI-8226 leukemia, 3.71 µM; with MDA-MB-231 breast, 4.24 µM. The TGI is more than 100 µM with SR leukemia; more than 100 µM with HCT-116 colon; more than 100 µM in the assay with OVCAR-4 ovarian; more than 100 µM in the assay on NCI/ADR-RES ovarian; more than 100 µM in the assay on MOLT-4 leukemia; 25.8 µM in the assay on MDA-MB-435. In addition, the TGI with PC-3 prostate, in the assay with MCF7 breast, in the assay with RPMI-8226 leukemia and with MDA-MB-231 breast was more than 100 µM throughout.

Consider `CC(=O)OC1CCC2(C)C(=CC(C3C=C4CC(OC(C)=O)CCC4(C)C4=C3C3CC5OC6(CCC(C)CO6)C(C)C5C3(C)CC4)C3=C2CCC2(C)C3CC3OC4(CCC(C)CO4)C(C)C32)C1` (configuration not stated), for which the TGI with SR leukemia turned out to be 28.3 µM; with HCT-116 colon, 28.4 µM; with OVCAR-4 ovarian, 28.2 µM; with NCI/ADR-RES ovarian, 37.7 µM; in the assay on MOLT-4 leukemia it was 4.7 µM; in the assay on MDA-MB-435, 27.1 µM. The TGI in the assay with PC-3 prostate was found to be 25.6 µM; in the assay with MCF7 breast, 21.9 µM; in the assay on RPMI-8226 leukemia, 16.2 µM; in the assay on MDA-MB-231 breast, 32 µM.

For `CC(=O)N1CC(F)(F)c2c(Sc3ncc(N4CCC5(CC4)COC[C@H]5N)nc3N)cccc21`, the GI50 is 8.16 µM in the assay with SR leukemia; 17.7 µM in the assay with HCT-116 colon; 10.5 µM in the assay on OVCAR-4 ovarian; 27.6 µM in the assay with NCI/ADR-RES ovarian; 21.1 µM with MOLT-4 leukemia; 31 µM in the assay with MDA-MB-435. In addition, the GI50 in the assay on PC-3 prostate is 29.8 µM; in the assay on MCF7 breast it was 15.8 µM; with RPMI-8226 leukemia, 12.4 µM; in the assay with MDA-MB-231 breast, 17.3 µM. Moreover, the TGI in the assay with SR leukemia was 35.8 µM; in the assay on HCT-116 colon, 46.6 µM; with OVCAR-4 ovarian, 96.6 µM; in the assay with NCI/ADR-RES ovarian it was more than 100 µM; in the assay on MOLT-4 leukemia, 67.7 µM; in the assay on MDA-MB-435, more than 100 µM. In addition, the TGI with PC-3 prostate was more than 100 µM; in the assay with MCF7 breast it was 55.6 µM; with RPMI-8226 leukemia, 42.7 µM; in the assay with MDA-MB-231 breast, 41.5 µM.

In the case of `Cn1c(O)c(C(=O)Nc2ccc([N+](=O)[O-])cc2)c(=O)n(C)c1=S`, the TGI in the assay on SR leukemia was more than 100 µM; in the assay on HCT-116 colon it was 5.63 µM; in the assay with OVCAR-4 ovarian it was 13.5 µM; in the assay on NCI/ADR-RES ovarian, 11 µM; with MOLT-4 leukemia, more than 100 µM; in the assay with MDA-MB-435, 4.95 µM. For the same molecule, the TGI was 5.34 µM in the assay with PC-3 prostate, more than 100 µM in the assay on MCF7 breast, more than 100 µM in the assay with RPMI-8226 leukemia and 6.12 µM in the assay on MDA-MB-231 breast.

As to `C[C@@H]1CC[C@@]2(OC1)O[C@H]1C[C@H]3[C@@H]4CC=C5C[C@@H](O[C@@H]6O[C@H](CO)[C@@H](O[C@@H]7O[C@@H](CO)[C@H](O)[C@H]7O)[C@H](O)[C@H]6O[C@@H]6O[C@@H](C)[C@H](O)[C@@H](O)[C@H]6O)CC[C@]5(C)[C@H]4CC[C@]3(C)[C@H]1[C@@H]2C`, the GI50 in the assay with SR leukemia is 0.565 µM; in the assay with OVCAR-4 ovarian, 1.36 µM; with NCI/ADR-RES ovarian, 1.43 µM; in the assay with MDA-MB-435 it was 1.29 µM; in the assay with PC-3 prostate, 1.45 µM; in the assay with MCF7 breast, 1.8 µM. The values for the GI50 in the assay with RPMI-8226 leukemia and with MDA-MB-231 breast were 1.09 µM and 0.514 µM, respectively. Further, the TGI in the assay with SR leukemia worked out at 2.39 µM; in the assay with HCT-116 colon it was 2.09 µM; with OVCAR-4 ovarian it was 2.71 µM; in the assay with NCI/ADR-RES ovarian, 2.78 µM; in the assay with MOLT-4 leukemia, 2.26 µM; in the assay with MDA-MB-435 it was 2.58 µM. Also, the TGI came to 2.81 µM in the assay on PC-3 prostate, 3.3 µM in the assay on MCF7 breast, 2.4 µM in the assay on RPMI-8226 leukemia and 1.77 µM in the assay with MDA-MB-231 breast.

Values taken from PubChem BioAssay (NCI).
